The source of these data is patent publication US4238566A (priority 1980, dated 1980).

Molecules are shown by their SMILES.

Assay type in all cases: biochemical
The target of test [1] is T1, Bovine milk xanthine oxidase (E.C. 1.2.3.2.), XO concentrate by prior art 1 (Horecker and Heppel 1955), E280/E450 ratio 6.1 (Bos taurus, UniProt P80457).
T1 construct: Bovine milk XO was purified using three different methods; from tissue; host or cells: bovine milk (purified in-house by the method of Horecker and Heppel 1955)
T1 sequence (P80457 whole entry): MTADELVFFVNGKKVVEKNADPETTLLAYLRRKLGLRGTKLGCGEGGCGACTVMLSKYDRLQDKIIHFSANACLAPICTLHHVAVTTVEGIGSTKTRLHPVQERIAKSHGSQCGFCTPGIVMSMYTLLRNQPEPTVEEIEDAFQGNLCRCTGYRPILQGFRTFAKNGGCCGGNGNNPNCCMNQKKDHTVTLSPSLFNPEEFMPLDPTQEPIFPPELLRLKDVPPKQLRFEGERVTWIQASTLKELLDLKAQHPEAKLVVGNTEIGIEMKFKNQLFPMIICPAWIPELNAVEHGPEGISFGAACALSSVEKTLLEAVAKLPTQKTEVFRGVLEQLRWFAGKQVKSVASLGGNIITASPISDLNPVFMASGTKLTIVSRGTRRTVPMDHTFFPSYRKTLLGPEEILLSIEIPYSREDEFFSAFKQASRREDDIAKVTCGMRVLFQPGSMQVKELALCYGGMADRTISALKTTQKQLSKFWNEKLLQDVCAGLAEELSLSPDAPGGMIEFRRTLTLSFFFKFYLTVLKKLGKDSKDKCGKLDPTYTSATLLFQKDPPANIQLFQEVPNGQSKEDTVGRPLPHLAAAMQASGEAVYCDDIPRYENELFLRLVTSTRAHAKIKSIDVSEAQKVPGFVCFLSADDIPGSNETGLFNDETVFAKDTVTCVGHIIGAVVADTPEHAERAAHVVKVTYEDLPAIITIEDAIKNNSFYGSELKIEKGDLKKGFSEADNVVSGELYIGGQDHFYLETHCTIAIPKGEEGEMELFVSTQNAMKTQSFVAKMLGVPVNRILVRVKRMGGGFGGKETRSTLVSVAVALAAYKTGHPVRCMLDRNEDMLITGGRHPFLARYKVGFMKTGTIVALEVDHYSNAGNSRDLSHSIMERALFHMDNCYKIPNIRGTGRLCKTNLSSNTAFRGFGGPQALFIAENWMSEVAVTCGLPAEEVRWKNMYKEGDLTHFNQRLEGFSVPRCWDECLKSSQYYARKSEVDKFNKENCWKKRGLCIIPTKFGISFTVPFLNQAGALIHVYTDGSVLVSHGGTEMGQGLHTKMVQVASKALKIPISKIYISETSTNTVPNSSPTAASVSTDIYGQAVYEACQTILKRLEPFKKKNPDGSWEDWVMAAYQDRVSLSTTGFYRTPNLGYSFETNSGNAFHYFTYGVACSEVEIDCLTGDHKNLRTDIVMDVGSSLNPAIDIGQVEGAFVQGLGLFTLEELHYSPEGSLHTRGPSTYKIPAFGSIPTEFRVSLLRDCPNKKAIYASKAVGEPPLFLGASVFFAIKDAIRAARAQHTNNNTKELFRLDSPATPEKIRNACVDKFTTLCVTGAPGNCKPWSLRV
The test can be described thus: Kinetic parameters (Km, Vmax, KI) of XO concentrate prepared by prior art method of Horecker and Heppel. The conditions noted are these: for Vmax with hypoxanthine / Vmax with xanthine: XO by prior art 1. How it is done: (§1) Bovine milk XO was purified using three different methods and the purified XO enzyme concentrate preparation from each method was assayed for its kinetic parameters.
(§2) The first method used was that of Horecker and Heppel (Methods in Enzymology, Vol. 2, pp. 482-485, 1955). […] The second method was that of Waud et al. (Arch. Biochem. and Biophys., Vol. 169, pp. 695-701, 1975). […] The third method was that described above for the preparation of the XO concentrate of this invention.
(§3) The concentration of the substrate was varied over a gradient of initial concentrations of one to nine millimolar. […] Three replicates of each assay were performed at each concentration of substrate. Buffer pH was monitored constantly and the percent oxygen saturation was maintained at approximately 75%. Lineweaver-Burk and Hanes plots were then constructed from the collected data.
(§4) Lineweaver-Burk and Hanes plots were constructed from the data and both Km and Vmax determined therefrom.
(§5) Experimental conditions for this part of the study were similar to the preceding experiments. […] From the collected data, Lineweaver-Burk plots for competitive inhibition were constructed.

The target of test [2] is T2, Bovine milk xanthine oxidase (E.C. 1.2.3.2.), XO concentrate by prior art 2 (Waud et al. 1975), E280/E450 ratio 4.8 (Bos taurus, UniProt P80457).
T2 construct: Bovine milk XO was purified using three different methods; from tissue; host or cells: bovine milk (purified in-house by the method of Waud et al. 1975)
T2 sequence (P80457 whole entry): as above
Put plainly: Kinetic parameters (Km, Vmax, KI) of XO concentrate prepared by prior art method of Waud et al. Conditions: for Vmax with hypoxanthine / Vmax with xanthine: XO by prior art 2. The method, then:
as §1, §2, §3, §4, §5

For test [3], the target named is T3, Bovine milk xanthine oxidase (E.C. 1.2.3.2.), XO concentrate of this invention, E280/E450 ratio 2.0 to 4.1 (Bos taurus, UniProt P80457).
T3 construct: Bovine milk XO was purified using three different methods; from tissue; host or cells: bovine milk (purified in-house by the method of the invention)
T3 sequence (P80457 whole entry): as above
Put plainly: Kinetic parameters (Km, Vmax, KI) of XO concentrate of this invention. Conditions: for Vmax with hypoxanthine / Vmax with xanthine: XO of this invention. The method, then:
as §1, §2, §3, §4, §5

For the compound `Nc1nc2ncc(CNc3ccc(C(=O)N[C@@H](CCC(=O)O)C(=O)O)cc3)nc2c(=O)[nH]1` [folic acid], the Ki (commonly the dissociation constant of the complex between target and ligand, obtained from inhibition or displacement) turned out to be 1790 nM in test [1], 1690 nM in test [2] and 1150 nM in test [3] (read-out: KI with folic acid).

Take `O=c1[nH]cnc2nc[nH]c12` [hypoxanthine]: the Vmax with hypoxanthine in test [1] (pH 8.3) is 1.25 I.U; in test [1] (pH 8.7), 0.448 I.U; in test [2] (pH 8.3) it was 1.31 I.U; in test [2] (pH 8.7), 0.463 I.U; in test [3] (pH 8.3), 1.47 I.U; in test [3] (pH 8.7), 0.666 I.U.

As for `O=c1[nH]c(=O)c2[nH]cnc2[nH]1` [xanthine], the Vmax with xanthine in test [1] (pH 8.3) was found to be 2.0 I.U; in test [1] (pH 8.7), 2.03 I.U; in test [2] (pH 8.3), 2.8 I.U; in test [2] (pH 8.7), 2.16 I.U; in test [3] (pH 8.3), 4.76 I.U; in test [3] (pH 8.7), 3.125 I.U.
